# Reference: ChEMBL document CHEMBL3865818, “4,5-Diaryl-3H-1,2-dithiole-3-thiones and related compounds as combretastatin A-4/oltipraz hybrids: Synthesis, molecular modelling and evaluation as antiproliferative agents and inhibitors of tubulin” (Eur J Med Chem, 2016)
# pIC50: −log10 of the molar value. Calls of active or inactive are those of the source. The rule behind the calls is not given here.
# What was measured:
# [1] = Cell cycle arrest in human KB cells assessed as accumulation at G2/M-phase at 0.05 uM measured after 12 hrs by propidium iodide staining-based flow cytometry (reference value: 30.19%); type: functional
# [2] = Cell cycle arrest in human KB cells assessed as accumulation at S-phase at 0.05 uM measured after 60 hrs by propidium iodide staining-based flow cytometry (reference value: 12.66%); type: functional
# KB = assay: Inhibition of alpha-tubulin in human KB cells assessed as induction of mitotic catastrophe by measuring multiple micronuclei formation at 0.2 uM by DAPI staining-based immunofluorescence assay; type: cell-based
# [3] = Cell cycle arrest in human KB cells assessed as accumulation at S-phase at 0.05 uM measured after 48 hrs by propidium iodide staining-based flow cytometry (reference value: 13.32%); type: functional
# [4] = Cell cycle arrest in human KB cells assessed as accumulation at G2/M-phase measured after 36 hrs by propidium iodide staining-based flow cytometry (reference value: 27.34%); type: functional
# [5] = Cell cycle arrest in human KB cells assessed as accumulation at SubG1-phase at 0.1 uM measured after 12 hrs by propidium iodide staining-based flow cytometry (reference value: 1.23%); type: functional
# [6] = Cell cycle arrest in human KB cells assessed as accumulation at SubG1-phase at 0.2 uM measured after 12 hrs by propidium iodide staining-based flow cytometry (reference value: 1.23%); type: functional
# [7] = Cell cycle arrest in human KB cells assessed as accumulation at SubG1-phase at 0.05 uM measured after 48 hrs by propidium iodide staining-based flow cytometry (reference value: 0.61%); type: functional
# [8] = Cell cycle arrest in human KB cells assessed as accumulation at G2/M-phase at 0.05 uM measured after 48 hrs by propidium iodide staining-based flow cytometry (reference value: 23.36%); type: functional
# [9] = Cell cycle arrest in human KB cells assessed as accumulation at SubG1-phase at 0.2 uM measured after 60 hrs by propidium iodide staining-based flow cytometry (reference value: 1.24%); type: functional
# [10] = Inhibition of porcine brain tubulin polymerization measured after 60 mins by fluorescence analysis; parameters: species or system Sus scrofa
# [11] = Cell cycle arrest in human KB cells assessed as accumulation at G0/G1-phase at 0.1 uM measured after 60 hrs by propidium iodide staining-based flow cytometry (reference value: 63.85%); type: functional
# [12] = Antiproliferative activity against human HT1080 cells measured after 72 hrs by MTT assay; type: functional, cell-based; conditions: HT-1080, 72 h
# [13] = Cell cycle arrest in human KB cells assessed as accumulation at SubG1-phase measured after 48 hrs by propidium iodide staining-based flow cytometry (reference value: 0.61%); type: functional
# [14] = Cell cycle arrest in human KB cells assessed as accumulation at G2/M-phase at 0.2 uM measured after 60 hrs by propidium iodide staining-based flow cytometry (reference value: 18.9%); type: functional
# [15] = Cell cycle arrest in human KB cells assessed as accumulation at SubG1-phase measured after 24 hrs by propidium iodide staining-based flow cytometry (reference value: 0.76%); type: functional
# [16] = Cell cycle arrest in human KB cells assessed as accumulation at S-phase at 0.05 uM measured after 36 hrs by propidium iodide staining-based flow cytometry (reference value: 16.51%); type: functional
# [17] = Cell cycle arrest in human KB cells assessed as accumulation at G2/M-phase at 0.2 uM measured after 36 hrs by propidium iodide staining-based flow cytometry (reference value: 27.34%); type: functional
# [18] = Cell cycle arrest in human KB cells assessed as accumulation at G0/G1-phase at 0.05 uM measured after 48 hrs by propidium iodide staining-based flow cytometry (reference value: 58.26%); type: functional
# [19] = Cell cycle arrest in human KB cells assessed as accumulation at S-phase at 0.1 uM measured after 24 hrs by propidium iodide staining-based flow cytometry (reference value: 16.96%); type: functional
# [20] = Cell cycle arrest in human KB cells assessed as accumulation at G0/G1-phase at 0.2 uM measured after 24 hrs by propidium iodide staining-based flow cytometry (reference value: 48.52%); type: functional
# [21] = Cell cycle arrest in human KB cells assessed as accumulation at G2/M-phase measured after 48 hrs by propidium iodide staining-based flow cytometry (reference value: 23.36%); type: functional
# [22] = Cell cycle arrest in human KB cells assessed as accumulation at G2/M-phase at 0.1 uM measured after 60 hrs by propidium iodide staining-based flow cytometry (reference value: 18.9%); type: functional
# [23] = Cell cycle arrest in human KB cells assessed as accumulation at G2/M-phase at 0.05 uM measured after 24 hrs by propidium iodide staining-based flow cytometry (reference value: 28.84%); type: functional
# [24] = Cell cycle arrest in human KB cells assessed as accumulation at SubG1-phase measured after 12 hrs by propidium iodide staining-based flow cytometry (reference value: 1.23%); type: functional
# [25] = Cell cycle arrest in human KB cells assessed as accumulation at SubG1-phase measured after 60 hrs by propidium iodide staining-based flow cytometry (reference value: 1.24%); type: functional
# [26] = Cell cycle arrest in human KB cells assessed as accumulation at SubG1-phase measured after 36 hrs by propidium iodide staining-based flow cytometry (reference value: 0.63%); type: functional
# [27] = Cell cycle arrest in human KB cells assessed as accumulation at G2/M-phase at 0.05 uM measured after 36 hrs by propidium iodide staining-based flow cytometry (reference value: 27.34%); type: functional
# [28] = Cell cycle arrest in human KB cells assessed as accumulation at G0/G1-phase at 0.2 uM measured after 60 hrs by propidium iodide staining-based flow cytometry (reference value: 63.85%); type: functional
# [29] = Cell cycle arrest in human KB cells assessed as accumulation at G0/G1-phase at 0.2 uM measured after 36 hrs by propidium iodide staining-based flow cytometry (reference value: 51.51%); type: functional
# [30] = Cell cycle arrest in human KB cells assessed as accumulation at S-phase at 0.1 uM measured after 36 hrs by propidium iodide staining-based flow cytometry (reference value: 16.51%); type: functional
# [31] = Cell cycle arrest in human KB cells assessed as accumulation at G0/G1-phase at 0.1 uM measured after 12 hrs by propidium iodide staining-based flow cytometry (reference value: 48.26%); type: functional
# [32] = Cell cycle arrest in human KB cells assessed as accumulation at G2/M-phase at 0.1 uM measured after 36 hrs by propidium iodide staining-based flow cytometry (reference value: 27.34%); type: functional
# [33] = Cell cycle arrest in human KB cells assessed as accumulation at G2/M-phase at 0.1 uM measured after 48 hrs by propidium iodide staining-based flow cytometry (reference value: 23.36%); type: functional
# [34] = Cell cycle arrest in human KB cells assessed as accumulation at G0/G1-phase at 0.2 uM measured after 48 hrs by propidium iodide staining-based flow cytometry (reference value: 58.26%); type: functional
# [35] = Cell cycle arrest in human KB cells assessed as accumulation at G0/G1-phase measured after 24 hrs by propidium iodide staining-based flow cytometry (reference value: 48.52%); type: functional
# [36] = Cell cycle arrest in human KB cells assessed as accumulation at SubG1-phase at 0.2 uM measured after 48 hrs by propidium iodide staining-based flow cytometry (reference value: 0.61%); type: functional
smiles,measurement,setting,value
COc1ccc(-c2ssc(=O)c2-c2cc(OC)c(OC)c(OC)c2)cc1N,Activity,[1],30.5%
same,Activity,[2],8.75%
same,Activity,KB,Active
same,Activity,[3],10.9%
same,Activity,[4],27.9%
same,Activity,[5],2.67%
same,Activity,[6],2.22%
same,Activity,[7],15.8%
same,Activity,[8],18.5%
same,Activity,[9],55.3%
same,pIC50,[10],5.35
same,Activity,[11],12.3%
same,pIC50,[12],6.83
same,Activity,[13],56.1%
same,Activity,[14],19.9%
same,Activity,[15],12.3%
same,Activity,[16],11.7%
same,Activity,[17],34.7%
same,Activity,[18],50.9%
same,Activity,[19],25.4%
same,Activity,[20],6.24%
same,Activity,[21],15.5%
same,Activity,[22],10%
same,Activity,[23],36.6%
same,Activity,[24],1.85%
same,Activity,[25],58.1%
same,Activity,[26],25.8%
same,Activity,[27],23%
same,Activity,[28],10.4%
same,Activity,[29],7.48%
same,Activity,[30],14.5%
same,Activity,[31],8.66%
same,Activity,[32],23.7%
same,Activity,[33],22.6%
same,Activity,[34],11.7%
same,Activity,[35],6.89%
same,Activity,[36],49.9%
